In patent US20110082091A1, “Method for Preclinical Testing of Immunomodulatory Drugs” (TheraMAB GmbH, priority 2009, published 2011):
Entries after “also recorded” stand apart in the source; their conditions may differ.

Key:
PBMCs [1] = format: cell-based, human
PBMCs [2] = format: cell-based, human; remark: listed apart in the source
CD4 T-cells in PBMCs = assay: Intracellular TNF / IFN-gamma staining of CD4 T-cell subsets (flow cytometry, brefeldin A); format: cell-based, human; settings: mAb 1 μg/ml, 18 hours, brefeldin A last 4 hours; CD45RO+ vs CD45RO- CD4 T-cells
Procedure: 2 day high-density precultured PBMCs were stimulated for 18 hours with 1 μg/ml of OKT3 or of TGN1412. Instead of 18 hours stimulation for a period of time between 15 to 20 hours, preferably 16 to 18 hours, is generally possible. During the last 4 hours of culture, 5 μg/ml of brefeldin A was added to block cellular export of cytokines. After cell-surface staining with fluorochome-conjugated mAb to CD4 and CD45RO (memory marker), cells were fixed, permeabilized and stained with mAb to TNF—left panels—or IFNgamma—right panels—(all from BD Pharmingen, Mountain View, Calif., USA)
15.000 live-gated events were acquired on a BD Calibur flow cytometer and data were analyzed using FlowJo software (Three Star Inc., Ashland, Oreg., USA). The cytokine storm elicited by OKT3 in patients is a well-known phenomenon, and the accompanying information provided with this drug (Muromonomab, Janssen-CILAG) explicitly warns against this syndrome. […] In parallel, the cell surface phenotype of the stimulated PBMCs was determined. The main cytokine-producing T-cell subset, the CD4 T-cells, were thus identified and further subdivided into naive (CD45R0−) and memory (CD45RO+) subsets.

human PBMCs [3] = assay: PBMC proliferation, 3H-thymidine incorporation; format: cell-based; settings: 3H-thymidine on day 3, 16 hours
Procedure: Fresh and precultured PBMCs were prepared and cultured as described for FIGS. 1 A and B, respectively. On day 3, 1 μCi of 3H-thymidine was added, and cultures were harvested 16 hours later and processed for liquid scintillation counting. Besides cytokine release, polyclonal T-cell activation results in proliferation which can be measured as radioactivity incorporated, here incorporated as tritiated thymidine. […] Thus, proliferation can also be used as a readout.

human PBMCs [4] = assay: Cytokine release from freshly isolated PBMCs (standard culture), cytokine bead array; format: cell-based; settings: fresh PBMCs, 10^6/ml, mAb 1 μg/ml, 24 hours
Text: For the induction of cytokine release, the present invention as well as this comparative example uses a system of PBMC stimulation as described below to study the response of human PBMCs to immune-modulating agents. This system employs freshly prepared PBMCs, isolated from heparinized venous blood by centrifugation over a density gradient (Lymphocyte Separation Medium LSM 1077, PAA Laboratories, Pasching, Germany) following the manufacturer's instructions. […]
In this tissue culture system, freshly isolated PBMCs were stimulated with soluble TGN1412 provided by TheraMab GmbH, Wurzburg. […] After 24 hours, a panel of cytokines including the major pro- and anti-inflammatory factors detected in plasma of the volunteers of the TGN1412 trial (Suntharalingam et al., 2006) were analyzed by the cytokine-bead-array (CBA) technology (Becton Dickinson, Mountain View, Calif., USA) following the manufacturer's instructions. […]
PBMCs from a healthy donor were isolated by Ficoll density centrifugation and cultured in 0.2 ml RPMI1640 medium supplemented with 10% AB serum for 24 hours at 10^6/ml in 96 well flat bottom tissue culture plates. Cytokines in the supernatants were analyzed after 24 hours of incubation by cytokine bead array. […]

patients = patients receiving mAb therapy; cited from earlier work
human PBMCs [5] = assay: Cytokine release from precultured PBMCs restimulated at 10^6/ml, cytokine bead array; format: cell-based; settings: high-density precultured PBMCs, mAb 1 μg/ml, OKT3 compared with TGN1412
Procedure: For the experiment in FIG. 1B PBMCs from a healthy donor were cultured in 1.5 ml medium for 2 days at 10^7/ml in 24 well flat bottom tissue culture plates before being washed and readjusted to 10^6/ml. With these cells, the same experiment was performed as described in Example 1.
For the experiment of FIG. 3 PBMCs were cultured at 10^6/ml (left bars) or at 10^7/ml (right bars) for 2 days before being stimulated by TGN1412 at 10^6/ml as described in FIG. 1.
For the experiment of FIG. 4 fresh PBMCs (left bars of triplets), and PBMCs precultured at 10^7/ml for 24 (middle bars of triplets) or 48 hours (right bars of triplets) were stimulated with OKT3 or TGN1412 for 24 hours under the conditions given in FIG. 1.
For the experiment of FIG. 5 PBMCs were cultured for two days at high density (10^7/ml, right bars of triplets) or at low density (10^6/ml, left and middle bars of triplets) in 1.5 ml cultures. In the group shown as middle bars of triplets, these low density cultures additionally contained an insert with a semipermeable membrane on which additional PBMCs were cultured at high-density (10^6/ml below membrane, 10^7/ml above membrane, middle bars of triplets).
Cell density. […]
High-density precultured PBMCs were prepared as in FIG. 1B and stimulated with 1 μg/ml of OKT3 or TGN1412. Supernatants were harvested at the times indicated and TNF content was analysed as in FIG. 1.

Staphylococcal Enterotoxin B
proliferative response (PBMCs [1]): strongly enhances the sensitivity of this assay

phytohemagglutinin [PHA]
proliferative T-cell response (PBMCs [2]): strongly enhanced

concanavalin A [ConA]
proliferative T-cell response (PBMCs [2]): strongly enhanced

OKT3: CD3-specific mAb addressing the T-cell antigen receptor, clinical-grade, Janssen-Cilag
cellular source of TNF and IFN-gamma production (CD4 T-cells in PBMCs): predominantly in the CD4 memory subset | proliferation (human PBMCs [3]; 2 day high-density precultured PBMCs): stimulated the proliferation of both, fresh and precultured PBMCs | proliferation (human PBMCs [3]; fresh PBMCs): stimulated the proliferation of both, fresh and precultured PBMCs | cytokine release (TNF, IFN-gamma, IL-2, IL-10) (human PBMCs [4]): highly effective in inducing TNF, IFN-gamma, and IL-2; also recorded: ability | systemic cytokine release (patients): induce the systemic release of proinflammatory cytokines | kinetics of TNF release (human PBMCs [5]): follows the same kinetics
